Target: T1, human ferroportin (Homo sapiens, UniProt Q9NP59)
T1 construct: luciferase reporter (read with the Nano-Glo Luciferase Assay System); expressed in transfected cells; host or cells: CHO cells, stably transfected, expression induced with doxycycline
T1 sequence (Q9NP59 1-571): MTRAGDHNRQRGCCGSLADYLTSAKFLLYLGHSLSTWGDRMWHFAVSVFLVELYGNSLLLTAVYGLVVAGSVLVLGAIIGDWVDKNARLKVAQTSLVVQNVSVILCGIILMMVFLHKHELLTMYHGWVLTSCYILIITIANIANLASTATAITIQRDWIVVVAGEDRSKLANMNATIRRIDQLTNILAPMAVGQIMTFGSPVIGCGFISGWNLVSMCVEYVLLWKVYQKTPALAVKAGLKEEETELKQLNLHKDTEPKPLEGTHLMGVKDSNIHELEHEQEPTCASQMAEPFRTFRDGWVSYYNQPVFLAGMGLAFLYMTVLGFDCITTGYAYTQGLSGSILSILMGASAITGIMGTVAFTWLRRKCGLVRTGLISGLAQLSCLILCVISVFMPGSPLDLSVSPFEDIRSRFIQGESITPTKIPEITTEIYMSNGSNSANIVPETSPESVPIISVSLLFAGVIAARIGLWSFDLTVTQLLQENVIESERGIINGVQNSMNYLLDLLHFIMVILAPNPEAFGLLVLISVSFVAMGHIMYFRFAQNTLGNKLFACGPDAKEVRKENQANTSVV
Experiment: Biological in-vitro ferroportin internalization assay (luciferase reporter)
Type: cell-based
Details: average pEC50; stably-transfected CHO cell line expressing human ferroportin tagged to a luciferase reporter; 6 h incubation with test compound
Summary of the method: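 Read-out is Nano-Glo luciferase signal after 6 h compound exposure, with average pEC50 derived. Cells are a stable CHO line carrying luciferase-tagged human ferroportin, pre-loaded 24 h with ferric ammonium citrate and doxycycline-induced for 24 h.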

Row | Structure (SMILES) | pEC50
1 | CC(C)NC(=O)CN(C)c1nc(-c2cc(OCCN(C)C)ccn2)nc2c1CCC2(C)C [Compound 456, 2-[(2-{4-[2-(dimethylamino)ethoxy]pyridin-2-yl}-7,7-dimethyl-5H,6H,7H-cyclopenta[d]pyrimidin-4-yl)(methyl)amino]-N-(propan-2-yl)acetamide] | 6.2
2 | COc1ccc(NC(=O)CN(C)c2nc(-c3cc(O[C@@H]4CCOC4)ccn3)nc3c2CCC3)cn1 [Compound 346, N-(6-methoxypyridin-3-yl)-2-[methyl(2-{4-[(3R)-oxolan-3-yloxy]pyridin-2-yl}-5H,6H,7H-cyclopenta[d]pyrimidin-4-yl)amino]acetamide] | 7.6
3 | CN(CC(=O)NC(C)(C)C)c1nc(-c2cc3occc3cn2)nc2c1CCC2 [Compound 341, N-tert-butyl-2-[(2-{furo[3,2-c]pyridin-6-yl}-5H,6H,7H-cyclopenta[d]pyrimidin-4-yl)(methyl)amino]acetamide] | 7.6
4 | CCNC(=O)CN(C)c1nc(-c2cc(OCC3(O)CCOCC3)ccn2)nc2c1CCC2 [Compound 447, N-ethyl-2-[(2-{4-[(4-hydroxyoxan-4-yl)methoxy]pyridin-2-yl}-5H,6H,7H-cyclopenta[d]pyrimidin-4-yl)(methyl)amino]acetamide] | 7.6
5 | COc1ccc(NC(=O)[C@@H](C)N(C)c2nc(-c3cc(OCCO)ccn3)nc3c2CCC3)cn1 [Compound 309, (2R)-2-({2-[4-(2-hydroxyethoxy)pyridin-2-yl]-5H,6H,7H-cyclopenta[d]pyrimidin-4-yl}(methyl)amino)-N-(6-methoxypyridin-3-yl)propanamide] | 8.1
6 | CN(CC(=O)NC12CC(C1)C2)c1nc(-c2cc(OC3COC3)ccn2)nc2c1CCC2 [Compound 340, N-{bicyclo[1.1.1]pentan-1-yl}-2-[methyl({2-[4-(oxetan-3-yloxy)pyridin-2-yl]-5H,6H,7H-cyclopenta[d]pyrimidin-4-yl})amino]acetamide] | 7.7
7 | C[C@H]1OC[C@@H]1Oc1ccnc(-c2nc3c(c(N(C)CC(=O)NC(C)(C)C)n2)CCC3)c1 (racemic) [Compound 333, N-tert-butyl-2-{methyl[2-(4-{[(2R,3S)-2-methyloxetan-3-yl]oxy}pyridin-2-yl)-5H,6H,7H-cyclopenta[d]pyrimidin-4-yl]amino}acetamide] | 7.8
8 | COc1ncc(NC(=O)CN(C)c2nc(-c3cc(OCC(C)(C)O)ccn3)nc3c2CCC3)cn1 [Compound 260, 2-({2-[4-(2-hydroxy-2-methylpropoxy)pyridin-2-yl]-5H,6H,7H-cyclopenta[d]pyrimidin-4-yl}(methyl)amino)-N-(2-methoxypyrimidin-5-yl)acetamide] | 7.6
9 | COc1ccnc(-c2nc3c(c(N(C)Cc4nc(Cc5ccccc5)co4)n2)CCC3)c1 [Compound 379, N-[(4-benzyl-1,3-oxazol-2-yl)methyl]-2-(4-methoxypyridin-2-yl)-N-methyl-5H,6H,7H-cyclopenta[d]pyrimidin-4-aminemide] | 7.2
10 | COc1ccccc1NC(=O)CN(C)c1nc(-c2ccccn2)nc2c1CCC2 [Compound 15, N-(2-methoxyphenyl)-2-{methyl[2-(pyridin-2-yl)-5H,6H,7H-cyclopenta[d]pyrimidin-4-yl]amino}acetamide] | 6.9
11 | COc1ccnc(-c2nc3c(c(N(C)CC(=O)Nc4cnc(OC)nc4)n2)CCC3)c1 [Compound 153, 2-{[2-(4-methoxypyridin-2-yl)-5H,6H,7H-cyclopenta[d]pyrimidin-4-yl](methyl)amino}-N-(2-methoxypyrimidin-5-yl)acetamide] | 7.6
12 | CC(C)[C@@H](O)COc1ccnc(-c2nc3c(c(N(C)CC(=O)NC(C)(C)C)n2)CCC3)c1 [Compound 387, N-tert-butyl-2-[(2-{4-[(2R)-2-hydroxy-3-methylbutoxy]pyridin-2-yl}-5H,6H,7H-cyclopenta[d]pyrimidin-4-yl)(methyl)amino]acetamide] | 8.2
13 | CN(c1nc(-c2ccccn2)nc2c1CCC2)[C@H]1CCN(c2ccccc2)C1=O [Compound 131, (3S)-3-{methyl[2-(pyridin-2-yl)-5H,6H,7H-cyclopenta[d]pyrimidin-4-yl]amino}-1-phenylpyrrolidin-2-one] | 7.1
14 | CN(CC(=O)NC(C)(C)C)c1nc(-c2cc(OC[C@@H](O)CO)ccn2)nc2c1CCC2 [Compound 451, N-tert-butyl-2-[(2-{4-[(2S)-2,3-dihydroxypropoxy]pyridin-2-yl}-5H,6H,7H-cyclopenta[d]pyrimidin-4-yl)(methyl)amino]acetamide] | 7.8
15 | CC(C)NC(=O)CN(C)c1nc(-c2cc(OCC3(O)CCOCC3)ccn2)nc2c1CCC2 [Compound 444, 2-[(2-{4-[(4-hydroxyoxan-4-yl)methoxy]pyridin-2-yl}-5H,6H,7H-cyclopenta[d]pyrimidin-4-yl)(methyl)amino]-N-(propan-2-yl)acetamide] | 7.9
16 | CN(CC(=O)Nc1cccc(F)c1)c1nc(-c2cc3c(cn2)OCCO3)nc2c1CCC2 [Compound 282, 2-[(2-{2H,3H-[1,4]dioxino[2,3-c]pyridin-7-yl}-5H,6H,7H-cyclopenta[d]pyrimidin-4-yl)(methyl)amino]-N-(3-fluorophenyl)acetamide] | 7.5
17 | CN(c1nc(-c2ccccn2)nc2c1CCC2)C(C)(C)C(=O)NC(C)(C)C [Compound 19, N-tert-butyl-2-methyl-2-{methyl[2-(pyridin-2-yl)-5H,6H,7H-cyclopenta[d]pyrimidin-4-yl]amino}propanamide] | 5.4
18 | C[C@H](C(=O)NC(C)(C)C)N(C)c1nc(-c2cc(O[C@@H]3CCN(C)C3)ccn2)nc2c1CCC2 [Compound 503, (2R)—N-tert-butyl-2-{methyl[2-(4-{[(3R)-1-methylpyrrolidin-3-yl]oxy}pyridin-2-yl)-5H,6H,7H-cyclopenta[d]pyrimidin-4-yl]amino}propanamide] | 8.5
19 | CC(C)NC(=O)CN(C)c1nc(-c2cc(OCC(C)(C)O)ccn2)nc2c1CCC2(C)C [Compound 450, 2-({2-[4-(2-hydroxy-2-methylpropoxy)pyridin-2-yl]-7,7-dimethyl-5H,6H,7H-cyclopenta[d]pyrimidin-4-yl}(methyl)amino)-N-(propan-2-yl)acetamide] | 6.4
20 | COc1ccnc(-c2nc3c(c(N(C)CC(=O)Nc4ccc(OC)nc4)n2)CCC3)c1 [Compound 151, 2-{[2-(4-methoxypyridin-2-yl)-5H,6H,7H-cyclopenta[d]pyrimidin-4-yl](methyl)amino}-N-(6-methoxypyridin-3-yl)acetamide] | 8.1
21 | CC(C(=O)NC(C)(C)C)N(c1ccccc1)c1nc(-c2ccccn2)nc2c1CCC2 (centres unmarked) [Compound 20, N-tert-butyl-2-{phenyl[2-(pyridin-2-yl)-5H,6H,7H-cyclopenta[d]pyrimidin-4-yl]amino}propanamide] | 6.7
22 | CC(C)NC(=O)CN(C)c1nc(-c2cc(OCC3(O)CC3)ccn2)nc2c1CCC2 [Compound 431, 2-[(2-{4-[(1-hydroxycyclopropyl)methoxy]pyridin-2-yl}-5H,6H,7H-cyclopenta[d]pyrimidin-4-yl)(methyl)amino]-N-(propan-2-yl)acetamide] | 7.4
23 | CN(C)CCOc1ccnc(-c2nc3c(c(N(C)CC(=O)NC(C)(C)C)n2)C(O)CC3)c1 (centres unmarked) [Compound 493, N-tert-butyl-2-[(2-{4-[2-(dimethylamino)ethoxy]pyridin-2-yl}-5-hydroxy-5H,6H,7H-cyclopenta[d]pyrimidin-4-yl)(methyl)amino]acetamide] | 6.9
